Results on 7 compounds are retold here after patent US7396837B2, “Antitumoral analogs of lamellarins” (Pharma Mar, S.A.U., priority 2002, dated 2008).

Entries after “also recorded” stand apart in the source; their conditions may differ. Read-outs that look alike come from different tables or passages of the source.

In one data set the target is T1, human topoisomerase I (Homo sapiens, UniProt P11387).
T1 sequence (P11387 1-765): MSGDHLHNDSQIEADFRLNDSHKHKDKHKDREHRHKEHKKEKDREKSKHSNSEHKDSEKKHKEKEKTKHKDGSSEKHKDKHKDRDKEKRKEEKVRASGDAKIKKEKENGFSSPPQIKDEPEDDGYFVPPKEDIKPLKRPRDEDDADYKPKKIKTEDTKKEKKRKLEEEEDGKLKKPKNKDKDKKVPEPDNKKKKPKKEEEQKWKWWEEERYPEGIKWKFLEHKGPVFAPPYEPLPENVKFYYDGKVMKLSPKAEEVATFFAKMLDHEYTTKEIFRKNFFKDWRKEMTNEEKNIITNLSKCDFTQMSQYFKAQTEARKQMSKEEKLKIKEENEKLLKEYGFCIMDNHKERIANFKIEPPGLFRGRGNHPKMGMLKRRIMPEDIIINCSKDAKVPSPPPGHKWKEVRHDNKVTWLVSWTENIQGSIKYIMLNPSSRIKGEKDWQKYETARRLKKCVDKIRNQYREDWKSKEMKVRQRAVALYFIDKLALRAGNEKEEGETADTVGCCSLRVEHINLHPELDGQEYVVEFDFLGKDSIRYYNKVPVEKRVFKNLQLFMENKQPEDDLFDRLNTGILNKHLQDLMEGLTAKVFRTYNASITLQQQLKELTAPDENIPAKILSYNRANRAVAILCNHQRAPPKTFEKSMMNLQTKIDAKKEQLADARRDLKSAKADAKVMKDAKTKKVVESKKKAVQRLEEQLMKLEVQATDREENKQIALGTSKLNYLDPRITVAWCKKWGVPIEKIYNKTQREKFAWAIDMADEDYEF
The data set is described as follows: Topoisomerase I cleavage of radiolabeled 117-bp DNA fragment. Format: biochemical. Particulars: for stimulation of DNA cleavage by topoisomerase I (radiolabeled DNA substrate) / topoisomerase I-mediated DNA cleavage sites / cleavage profile: 117-bp DNA restriction fragment 3' end-labeled; for topoisomerase I-mediated DNA cleavage sites / cleavage profile: sequencing-type polyacrylamide gels. From the text:
Two assays, based on DNA relaxation and DNA cleavage (Bailly, C. DNA relaxation and cleavage assays to study topoisomerase I inhibitors. Methods Enzymol. 2001, 340, 610-623) were used evaluate the effects of the lamellarin analogs on the catalytic activity of human topoisomerase I.
A second assay, based on the cleavage of a radiolabeled DNA substrate by topoisomerase I, was used to confirm that the cationic lamellarin derivatives do effectively function as topoisomerase I poisons. A 117-bp DNA restriction fragment uniquely end-labeled at the 3′ end was subjected to cleavage by topoisomerase I in the presence of the different compounds and the resulting DNA cleavage products were resolved on sequencing-type polyacrylamide gels. The advantage of this assay is to detect the cleavage sites and to locate their positions with nucleotide resolution, providing thus information on the site selectivity of cleavage.

A further data set relates to HeLa-APL. Description: SRB colorimetric cell growth inhibition assay, HeLa-APL (aplidine resistant). It counts as cell-based. The settings on record: Homo sapiens; for GI50: read-out: GI50 HELA-APL; for CC50: read-out: LC50 HELA-APL; for IC (TGI): read-out: TGI HELA-APL. In short, it runs like this:
(§1)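 Sulforhodamine B colorimetric readout measured cell growth and viability after continuous compound exposure of human cancer cell lines in 96-well plates. Triplicate wells gave mean ± SD, from which growth inhibition (GI), cytostatic total growth inhibition (TGI) and cytotoxic cell killing (LC) were calculated.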

The test system of a further data set is HeLa. The data set is described as follows: SRB colorimetric cell growth inhibition assay, HeLa. Particulars: Homo sapiens, HeLa; for GI50: read-out: GI50 HELA; for CC50: read-out: LC50 HELA; for IC (TGI): read-out: TGI HELA. It counts as cell-based. An outline of the steps:
as §1

A further data set relates to H-MEC-1. Description: SRB colorimetric cell growth inhibition assay, H-MEC-1. It counts as cell-based. The settings on record: Homo sapiens, HMEC-1, H-MEC-1. An outline of the steps:
(§2)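 Growth and viability quantified by sulforhodamine B staining in 96-well microplates. Triplicate wells give mean ± SD; derived endpoints are GI, TGI (cytostatic) and LC (cytotoxic).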

Assay in data set [1]: as above
Format: cell-based. Particulars: human, H-MEC-1 cells, H-MEC-1; LC=cell killing (cytotoxic effect); read-out: LC50 H-MEC-1. An outline of the steps:
as §2

The test system of data set [2] is SKOV-3. Description: SRB colorimetric cell growth inhibition assay, SKOV-3. It counts as cell-based. The settings on record: Homo sapiens. An outline of the steps:
as §2

Data set [3] deals with SKOV-3. Described as above. It counts as cell-based. The settings on record: Homo sapiens; for GI50: SK-OV-3, SKOV-3, GI=growth inhibition, read-out: GI50 SKOV-3; for IC (TGI) / LC50 (concentration causing 50% net cell killing): SK-OV-3, SKOV-3; for IC (TGI): total growth inhibition (cytostatic effect), read-out: TGI SKOV-3; for LC50 (concentration causing 50% net cell killing): cell killing (cytotoxic effect), read-out: LC50 SKOV-3. An outline of the steps:
(§3)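 Growth inhibition (GI), total growth inhibition (TGI, cytostatic) and lethal concentration (LC, cytotoxic) come from an SRB-based colorimetric measure of growth and viability. Data are triplicate-well means ± SD.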

The test system of a further data set is fertilised sea urchin. The settings on record: fertilised sea urchin assay; cited from earlier work.
A short description of data set [4]: SRB colorimetric cell growth inhibition assay, H-MEC-1. It counts as cell-based. Particulars: human, H-MEC-1 cells; H-MEC-1; cell killing (cytotoxic effect); read-out: LC50 H-MEC-1. In short, it runs like this: as §3
The mark [5] stands for this setting: HELA-APL, cell killing (cytotoxic effect).
The mark [6] stands for this setting: HELA-APL, total growth inhibition (cytostatic effect).
[7] abbreviates: cell killing (cytotoxic effect).
Where [8] appears, read: total growth inhibition (cytostatic effect).

`COc1cc(-c2c3n(c4c(=O)oc5cc(OC(=O)[C@H](C)NC(=O)[C@H](C)NC(=O)OC(C)(C)C)c(OC)cc5c24)CCc2cc(OC(=O)[C@H](C)NC(=O)[C@H](C)NC(=O)OC(C)(C)C)c(OC)cc2-3)ccc1OC(=O)[C@H](C)NC(=O)[C@H](C)NC(=O)OC(C)(C)C` [Compound 7]: the “stimulation of DNA cleavage by topoisomerase I (radiolabeled DNA substrate)” value (from here on “stimulation of DNA cleavage”) at human topoisomerase I is given as “stimulate DNA cleavage by the enzyme”. Further, in the data set on HeLa-APL, the GI50 came to 1850 nM, the CC50 was determined as 7240 nM and the IC (TGI) stood at 3660 nM. In addition, in the data set on HeLa, the GI50 turned out to be 830 nM, the CC50 is 4420 nM and the IC (TGI) is 1910 nM.

Take `COc1cc(-c2c3c4cc(OC)c(OC(=O)[C@@H](N)CC(C)C)cc4oc(=O)c3n3ccc4cc(OC(=O)[C@@H](N)CC(C)C)c(OC)cc4c23)ccc1OC(=O)[C@@H](N)CC(C)C` [Compound 39]: on human topoisomerase I, the “topoisomerase I-mediated DNA cleavage sites / cleavage profile” value is on record as “Cleavage profiles identical to that of 3”. Moreover, the GI50 in the data set on H-MEC-1 (GI=growth inhibition) amounted to 6.98 nM; with SKOV-3 [2] (SK-OV-3, SKOV-3, GI=growth inhibition, read-out: GI50 SKOV-3), 63.4 nM. Also, the IC (TGI) worked out at 8470 nM in the data set on H-MEC-1 (TGI=total growth inhibition (cytostatic effect), read-out: TGI H-MEC-1) and 8470 nM in the data set on SKOV-3 [2] (SK-OV-3, SKOV-3, TGI=total growth inhibition (cytostatic effect), read-out: TGI SKOV-3). For the same compound, the CC50 in data set [1] amounted to 8470 nM; in the data set on SKOV-3 [2] (SK-OV-3, SKOV-3, LC=cell killing (cytotoxic effect), read-out: LC50 SKOV-3), 8470 nM.

`COc1cc(-c2c3c4cc(OC)c(OC(=O)CCCCCN)cc4oc(=O)c3n3ccc4cc(OC(=O)CCCCCN)c(OC)cc4c23)ccc1OC(=O)CCCCCN` [Compound 169]: the “stimulation of DNA cleavage” value on human topoisomerase I was “stimulate DNA cleavage by the enzyme”. In addition, the GI50 in the data set on HeLa-APL (HELA-APL, GI=growth inhibition) worked out at 70.5 nM; in the data set on HeLa (GI=growth inhibition), 55.7 nM. The CC50 amounted to 2970 nM with HeLa-APL (setting [5]) and 4420 nM in the data set with HeLa (setting [7]). The IC (TGI) is 530 nM with HeLa-APL (setting [6]) and 1390 nM in the data set with HeLa (setting [8]).

Regarding `COc1cc(-c2c3c4cc(OC)c(O)cc4oc(=O)c3n3ccc4cc(O)c(OC)cc4c23)ccc1O` [Compound 3, lamellarin D, reference compound], the “topoisomerase I-mediated DNA cleavage sites / cleavage profile” value on human topoisomerase I (listed as LAM-D) is “T^↓G or C^↓G dinucleotides; also recorded: additional cleavage site at C^↓G73”. At human topoisomerase I (compared with CPT), the “efficiency of topoisomerase I-mediated DNA cleavage at sites T↓G48 and T↓G81” value was “less efficient than CPT”. Further, in the data set with SKOV-3 [3], the GI50 is 53.7 nM and the IC (TGI) is 240 nM. Also, the “inhibition of cell division” value in the data set with fertilised sea urchin is recorded as “inhibition of cell division”.

With `COc1cc(-c2c3c4cc(OC)c(OC(=O)[C@H](N)C(C)C)cc4oc(=O)c3n3ccc4cc(OC(=O)[C@H](N)C(C)C)c(OC)cc4c23)ccc1OC(=O)[C@H](N)C(C)C` [Compound 17], the “stimulation of DNA cleavage” value at human topoisomerase I was “no difference between the (L) (36) and (D) (17) Val isomers”. The GI50 in the data set with HeLa-APL (HELA-APL, GI=growth inhibition) was determined as 119 nM; with HeLa (GI=growth inhibition) it was 109 nM. In addition, the results for the CC50 in the data set on HeLa-APL (setting [5]) and in the data set with HeLa (setting [7]) were 1850 nM and 878 nM, respectively. Further, the IC (TGI) in the data set on HeLa-APL (setting [6]) was determined as 353 nM; with HeLa (setting [8]), 359 nM.

Regarding `COc1cc(-c2c3c4cc(OC)c(OC(=O)[C@@H]5CCCN5)cc4oc(=O)c3n3ccc4cc(OC(=O)[C@@H]5CCCN5)c(OC)cc4c23)ccc1OC(=O)[C@@H]1CCCN1` [Compound 33], the “topoisomerase I-mediated DNA cleavage sites / cleavage profile” value at human topoisomerase I was “Cleavage profiles identical to that of 3”. For the same compound, in the data set on SKOV-3 [3], the GI50 worked out at 39.1 nM, the LC50 (concentration causing 50% net cell killing) turned out to be 5030 nM and the IC (TGI) came to 228 nM. Moreover, the LC50 (concentration giving 50% net cell killing) in data set [4] turned out to be 46.3 nM.

On to `COc1cc(-c2c3c4cc(OC)c(OC(=O)[C@@H](N)C(C)C)cc4oc(=O)c3n3ccc4cc(OC(=O)[C@@H](N)C(C)C)c(OC)cc4c23)ccc1OC(=O)[C@@H](N)C(C)C` [Compound 36], for which, on human topoisomerase I, the “stimulation of DNA cleavage” value was “no difference between the (L) (36) and (D) (17) Val isomers”; the “topoisomerase I-mediated DNA cleavage sites / cleavage profile” value is given as “Cleavage profiles identical to that of 3”. In addition, in the data set on SKOV-3 [3], the GI50 turned out to be 39.2 nM, the LC50 (concentration causing 50% net cell killing) came to 5890 nM and the IC (TGI) is 297 nM. Further, the LC50 (concentration giving 50% net cell killing) in data set [4] was 1350 nM.

Broadly, the GI50 is the concentration at which growth is held to half of that of the control.
